Measured values taken from US20100190768A1, “NOVEL FUSED PYROLE DERIVATIVE” (Dainippon Sumitomo Pharma Co., Ltd., priority 2005, published 2010).

What was measured:
human GRα protein = biological target: T1, human GRα protein (Homo sapiens, UniProt P04150); experiment: Binding inhibitory assay (displacement of 3H-dexamethasone from the cytoplasm fraction of baculovirus-infected insect cells); conditions: 100 nM test compound; 3H-Dex; NSB with 10 μM dexamethasone; read-out: Binding Inhibitory ratio (%) of 100 nM of test compound
T1 construct: made in house; host or cells: insect cells infected with baculovirus; cytoplasm fraction used
T1 sequence (P04150 1-777): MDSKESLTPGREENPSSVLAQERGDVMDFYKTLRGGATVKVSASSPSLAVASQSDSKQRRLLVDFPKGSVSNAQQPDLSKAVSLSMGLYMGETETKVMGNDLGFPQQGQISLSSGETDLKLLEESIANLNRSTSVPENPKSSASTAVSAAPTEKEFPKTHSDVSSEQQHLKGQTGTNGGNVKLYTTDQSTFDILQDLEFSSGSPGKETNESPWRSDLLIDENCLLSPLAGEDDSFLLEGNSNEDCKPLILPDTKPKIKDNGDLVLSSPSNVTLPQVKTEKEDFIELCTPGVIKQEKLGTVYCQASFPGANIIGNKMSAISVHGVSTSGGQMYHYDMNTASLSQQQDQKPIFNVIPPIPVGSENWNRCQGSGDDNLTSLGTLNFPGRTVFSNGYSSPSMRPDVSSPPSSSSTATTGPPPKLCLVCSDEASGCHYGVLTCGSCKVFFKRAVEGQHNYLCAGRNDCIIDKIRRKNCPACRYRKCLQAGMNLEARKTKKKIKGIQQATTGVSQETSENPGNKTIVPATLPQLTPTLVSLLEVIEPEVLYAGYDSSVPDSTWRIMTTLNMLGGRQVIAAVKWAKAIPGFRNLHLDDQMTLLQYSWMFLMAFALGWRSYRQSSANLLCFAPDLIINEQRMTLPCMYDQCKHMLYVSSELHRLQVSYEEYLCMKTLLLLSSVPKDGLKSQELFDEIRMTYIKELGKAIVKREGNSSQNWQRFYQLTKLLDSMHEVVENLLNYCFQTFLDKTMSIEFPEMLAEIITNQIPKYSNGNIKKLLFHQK
Protocol: Insect cells, which had been infected with baculovirus for expressing human GRα protein, were suspended in an approximately equal volume of a binding buffer (10 mM Tris-Cl, 1.5 mM EDTA, 10% glycerol, 5 mM DTT, 20 mM sodium molybdate, pH 7.6). The mixture was rapidly frozen with liquid nitrogen, and then melted at room temperature. This cycle was repeated totally twice in order to break the cell membrane. The mixture was ultracentrifuged under 100,000 g at 4° C. for one hour to give the supernatant, which was the cytoplasm fraction containing human GRα protein.
A polypropylene 96-well plate (manufactured by Costar Corporation, etc.) was placed on ice, and DMSO or a test compound (each 1 μl) was put into each well. A 10 nM ^3H-Dex solution (50 μl; tritiated dexamethasone; manufactured by Amersham) in the binding buffer, and a GR protein solution, i.e., a solution by diluting the above cytoplasm fraction with the binding buffer (50 μl) were added to each well, and the plate was lightly shaken with a plate mixer, and then left to stand at 4° C. for 16 to 20 hours (the final concentration of DMSO: 1%).
A 5% solution of dextran-coated active carbon (manufactured by Sigma) suspended in the binding buffer (50 μl) was put into each well, and the plate was lightly shaken with a plate mixer for 30 seconds. Then, the plate was centrifuged at 2500 rpm at 4° C. for 5 minutes, and the ^3H count in the supernatant (50 μl) was measured by a TopCount (manufactured by Perkin-Elmer Corporation). Each test compound was tested twice.
The binding activity was calculated as follows. The mean ^3H count in the presence of dexamethason (Dex) 10 μM was considered as NSB (non-specific binding), and the binding inhibitory ratio in each well was calculated by the following equation.
Binding Inhibitory Ratio (%)=100×{1−(cpm value of each well−NSB)/(mean cpm value of DMSO-well−NSB)}
(cpm means count per minute)
The mean binding inhibitory ratio of each well was calculated by the above equation to give a binding inhibitory ratio of each test compound.

H4-III-E cells = experiment: TAT (tyrosine aminotransferase) assay; assay type: cell-based; conditions: for Agonistic activity of 10 μM test compound / activation at 10 µM: 10 μM test compound alone, relative to maximum Dex-induced TAT activity (100%); for Antagonistic activity of 10 μM test compound: 10 μM test compound together with 0.005 μM dexamethasone, inhibitory ratio against TAT activity increase by Dex; for activation at 10 µM: read-out: Agonistic activity of 10 μM test compound
Protocol: H4-III-E cells, which had been continuously cultured in α-MEM medium A (supplemented with 10% inactivated FBS, 50 μM 2-mercapto-ethanol), were suspended in α-MEM medium A or α-MEM medium B (supplemented with 10% inactivated FBS, 50 μM 2-mercapto-ethanol, but without phenol red), and the cell suspension was seeded to a 96-well plate in an amount of 2×10^4 cells/100 μl/well, and the cells were cultured overnight. The supernatant in the medium was removed, and a test compound (100 μl, diluted with α-MEM medium A or α-MEM medium B) was added, and the cells were further cultured overnight. In order to measure the agonistic activity, a test compound was added alone, while in order to measure the antagonistic activity, a test compound was added simultaneously together with 0.005 μM dexamethasone and evaluated the extent of the inhibitory effect of said test compound against the TAT activity-inducing activity by dexamethasone.
The culture supernatant in the plate was removed by suction, and a cell lysate (20 μL; 1% NP-40, 0.2% Triton X-100, 0.25% DOC, 0.1% SDS, 1 mM EGTA, 150 mM NaCl, Tris (pH7.4), Protease inhibitor cocktail [2.5 mg/ml aprotinin, 2.5 mg/ml leupeptin, 2.5 mg/ml soybean trypsin inhibitor]) was added, and further thereto was added a TAT reaction reagent (150 μL; 10 N KOH, 0.125 M KH2PO4, 0.5 M α-ketoglutarate, 5 mM Pyridoxal-5′ phosphate, L-tyrosine), and the mixture was reacted at 37° C. for 15 minutes. Further, a 10N KOH (20 μL) was added thereto, and the mixture was reacted at 37° C. for 30 minutes, and the absorbance at 331 nm was measured by a microplate reader (SPECTRA MAX 250).
From the mean absorbance in the wells to which a test compound was added, the mean absorbance in the wells to which a compound and a TAT reaction solution were not added was subtracted.
Agonistic activity (%)=100×[(absorbance of the drug-treated group)−(absorbance of the group without TAT reaction reagent)]/[(absorbance of Dex-treated group)−(absorbance of the group without TAT reaction reagent)]
On the other hand, the antagonistic activity was calculated as follows.
Antagonistic activity (%)=Inhibitory ratio (%) against TAT activity increase by Dex=100−100×[(absorbance of the drug-treated group)−(absorbance of the group without a drug)]/[(absorbance of Dex-treated group)−(absorbance of the group without a drug)]
With regard to the agonistic activity and the antagonistic activity, the results of 10% or more were expressed as O, while the results of less than 10% were expressed as X.

Row | inhibition at 0.1 µM (human GRα protein) [%] | Compound | Agonistic activity of 10 μM test compound (H4-III-E cells) | Antagonistic activity of 10 μM test compound (H4-III-E cells) | activation at 10 µM (H4-III-E cells) [%]
1 | 88 | CCOC(=O)CCCCNCC(O)(c1cn(Cc2ccccc2)c2cc([N+](=O)[O-])ccc12)C(F)(F)F (stereo not drawn) [Example 173, Ethyl 5-{[2-(1-benzyl-6-nitro-1H-indol-3-yl)-3,3,3-trifluoro-2-hydroxypropyl]-amino}pentanoate] | – | ◯ | < 10
2 | 95 | O=C(O)c1ccc(OC2CCN(CC(O)(c3cn(Cc4ccccc4)c4cc([N+](=O)[O-])ccc34)C(F)(F)F)CC2)cc1 (stereo not drawn) [Example 178, 4-({1-[2-(1-Benzyl-6-nitro-1H-indol-3-yl)-3,3,3-trifluoro-2-hydroxypropyl]-piperidin-4-yl}oxy)benzoic acid] | ◯ | ◯ | –
3 | 81 | CCOC(=O)Cc1ccc(OC2CCN(CC(O)(c3cn(Cc4ccccc4)c4cc([N+](=O)[O-])ccc34)C(F)(F)F)CC2)cc1 (stereo not drawn) [Example 179] | ◯ | ◯ | –
4 | 88 | CS(=O)(=O)C1CCN(CC(O)(c2cn(Cc3ccccc3)c3cc([N+](=O)[O-])ccc23)C(F)(F)F)CC1 (stereo not drawn) [Example 183, 2-(1-Benzyl-6-nitro-1H-indol-3-yl)-1,1,1-trifluoro-3-[4-(methylsulfonyl)piperidin-1-yl]propan-2-ol] | ◯ | ◯ | –
5 | 97 | O=[N+]([O-])c1ccc2c(C(O)(CN3CCC(S(=O)(=O)c4ccccc4)CC3)C(F)(F)F)cn(Cc3ccccc3)c2c1 (stereo not drawn) [Example 184, 2-(1-Benzyl-6-nitro-1H-indol-3-yl)-1,1,1-trifluoro-3-[4-(phenylsulfonyl)piperidin-1-yl]propan-2-ol] | ◯ | X (the results of less than 10% were expressed as X) | –
6 | 94 | O=C(c1cccnc1)C1CCN(CC(O)(c2cn(Cc3ccccc3)c3cc([N+](=O)[O-])ccc23)C(F)(F)F)CC1 (stereo not drawn) [Example 197, {1-[2-(1-Benzyl-6-nitro-1H-indol-3-yl)-3,3,3-trifluoro-2-hydroxypropyl]piperidin-4-yl}(pyridin-3-yl)methanone] | ◯ | ◯ | –
7 | 88 | CCOC(=O)Cc1ccc(OC2CCN(CC(O)(c3cn(Cc4ccccc4)c4cc([N+](=O)[O-])ccc34)C(F)(F)F)CC2)c(OC)c1 (stereo not drawn) [Example 200, Ethyl[4-({1-[2-(1-benzyl-6-nitro-1H-indol-3-yl)-3,3,3-trifluoro-2-hydroxypropyl]-piperidin-4-yl}oxy)-3-methoxyphenyl]acetate] | ◯ | ◯ | –

Further lines, the compound ahead of its results:

Row | Compound | inhibition at 0.1 µM (human GRα protein) [%] | Agonistic activity of 10 μM test compound (H4-III-E cells) | Antagonistic activity of 10 μM test compound (H4-III-E cells) | activation at 10 µM (H4-III-E cells) [%]
8 | CCOC(=O)CCCNCC(O)(c1cn(Cc2ccccc2)c2cc([N+](=O)[O-])ccc12)C(F)(F)F (stereo not drawn) [Example 169, Ethyl 4-{[2-(1-benzyl-6-nitro-1H-indol-3-yl)-3,3,3-trifluoro-2-hydroxypropyl]-amino}butanoate] | 99 | ◯ | ◯ | –
9 | O=C(O)Cc1ccc(OC2CCN(CC(O)(c3cn(Cc4ccccc4)c4cc([N+](=O)[O-])ccc34)C(F)(F)F)CC2)cc1 (stereo not drawn) [Example 180, [4-({1-[2-(1-Benzyl-6-nitro-1H-indol-3-yl)-3,3,3-trifluoro-2-hydroxypropyl]-piperidin-4-yl}oxy)phenyl]acetic acid] | 98 | ◯ | ◯ | –
10 | CCOC(=O)CCc1ccc(OC2CCN(CC(O)(c3cn(Cc4ccccc4)c4cc([N+](=O)[O-])ccc34)C(F)(F)F)CC2)cc1 (stereo not drawn) [Example 181, Ethyl 3-[4-({1-[2-(1-benzyl-6-nitro-1H-indol-3-yl)-3,3,3-trifluoro-2-hydroxypropyl]piperidin-4-yl}oxy)phenyl]propanoate] | 87 | ◯ | ◯ | –
11 | O=C(O)CCc1ccc(OC2CCN(CC(O)(c3cn(Cc4ccccc4)c4cc([N+](=O)[O-])ccc34)C(F)(F)F)CC2)cc1 (stereo not drawn) [Example 182, 3-[4-({1-[2-(1-Benzyl-6-nitro-1H-indol-3-yl)-3,3,3-trifluoro-2-hydroxypropyl]-piperidin-4-yl}oxy)phenyl]propanoic acid] | 99 | ◯ | ◯ | –
12 | O=[N+]([O-])c1ccc2c(C(O)(CN3CCC(Nc4ccccc4)CC3)C(F)(F)F)cn(Cc3ccccc3)c2c1 (stereo not drawn) [Example 185, 3-(4-Anilinopiperidin-1-yl)-2-(1-benzyl-6-nitro-1H-indol-3-yl)-1,1,1-trifluoropropan-2-ol] | 82 | – | ◯ | < 10
13 | O=C(c1cccs1)C1CCN(CC(O)(c2cn(Cc3ccccc3)c3cc([N+](=O)[O-])ccc23)C(F)(F)F)CC1 (stereo not drawn) [Example 194, {1-[2-(1-Benzyl-6-nitro-1H-indol-3-yl)-3,3,3-trifluoro-2-hydroxypropyl]piperidin-4-yl}(2-thienyl)methanone] | 94 | ◯ | ◯ | –
14 | COc1cc(CC(=O)O)ccc1OC1CCN(CC(O)(c2cn(Cc3ccccc3)c3cc([N+](=O)[O-])ccc23)C(F)(F)F)CC1 (stereo not drawn) [Example 201, [4-({1-[2-(1-Benzyl-6-nitro-1H-indol-3-yl)-3,3,3-trifluoro-2-hydroxypropyl]-piperidin-4-yl}oxy)-3-methoxyphenyl]acetic acid] | 99 | ◯ | ◯ | –
